For three molecules, Normal melting temperature results are on record in the NIST ThermoML archive (doi:10.1016/j.jct.2016.12.030).

± gives the expanded uncertainty stated by the source.

For this data set the following is noted: Crystal; DTA.
For the molecule `O` [water], the Normal melting temperature stood at 0.00 ± 0.5 °C.
Then `[Hg]` [mercury], with -38.86 ± 0.5 °C; and `CCCCCC` [hexane], with -95.76 ± 0.5 °C.
